The test system of one test is Candida albicans. Description: Antifungal activity against Candida albicans by broth microdilution technique. The format is functional, organism-based.
The next test relates to Cryptococcus neoformans. Description: Antifungal activity against Cryptococcus neoformans by broth microdilution technique. The format is functional, organism-based.
The test system of a further test is Trichophyton benhamiae. Description: Antifungal activity against Trichophyton mentagrophytes by broth microdilution technique. The format is functional, organism-based, Arthroderma benhamiae.
The test system of a further test is Klebsiella pneumoniae. Put plainly: Antibacterial activity against Klebsiella pneumoniae by broth microdilution technique. To be noted: Klebsiella pneumoniae; for IC50: read-out: IC50. The format is functional, organism-based.
For a further test, the system named is Pseudomonas aeruginosa. Put plainly: Antibacterial activity against Pseudomonas aeruginosa by broth microdilution technique. As to conditions: Pseudomonas aeruginosa; for IC50: read-out: IC50. The format is functional, organism-based.
The test system of the next test is Sporothrix schenckii. Put plainly: Antifungal activity against Sporothrix schenckii by broth microdilution technique. The format is functional, organism-based.
In a further test the test system is Enterococcus faecalis. Description: Antibacterial activity against Streptococcus faecalis by broth microdilution technique. The format is functional, organism-based. To be noted: Enterococcus faecalis; for IC50: read-out: IC50.
The subject of the next test is Aspergillus fumigatus. Description: Antifungal activity against Aspergillus fumigatus by broth microdilution technique. The format is functional, organism-based.
Another test has as its system Staphylococcus aureus. Put plainly: Antibacterial activity against Staphylococcus aureus by broth microdilution technique. The format is functional, organism-based. As to conditions: Staphylococcus aureus; for IC50: read-out: IC50.
In a further test the test system is Escherichia coli. Put plainly: Antibacterial activity against Escherichia coli by broth microdilution technique. The format is functional, organism-based. As to conditions: Escherichia coli; for IC50: read-out: IC50.
The subject of the next test is Candida parapsilosis. Description: Antifungal activity against Candida parapsilosis ATCC 22019 by broth microdilution technique. The format is functional, organism-based. As to conditions: Lodderomyces parapsilosis.

Structures are written as SMILES. ≈ marks a conversion by molar mass, not a printed value. Some results are limits rather than exact numbers.

As for `CCOC(=O)CSC1=C(NCC(C)C)C(=O)c2ccccc2C1=O`, the IC50 is greater than 50 µg/mL in the test on Candida albicans; greater than 50 µg/mL with Cryptococcus neoformans; 9.8 µg/mL (≈ 28.2 µM) in the test on Trichophyton benhamiae; 38.5 µg/mL (≈ 111 µM) in the test on Klebsiella pneumoniae; 42.5 µg/mL (≈ 122 µM) with Pseudomonas aeruginosa; 22.8 µg/mL (≈ 65.7 µM) in the test on Sporothrix schenckii. Also, the 50% inhibitory concentration (IC50) is 19.5 µg/mL (≈ 56.2 µM) in the test on Enterococcus faecalis; greater than 50 µg/mL with Aspergillus fumigatus; 21.6 µg/mL (≈ 62.1 µM) in the test on Staphylococcus aureus; 39.3 µg/mL (≈ 113 µM) with Escherichia coli; greater than 50 µg/mL in the test with Candida parapsilosis. The MIC against Candida albicans is greater than 50 µg/mL; against Cryptococcus neoformans, greater than 50 µg/mL; against Trichophyton benhamiae, 12.5 µg/mL (≈ 36 µM); with Klebsiella pneumoniae it was 50 µg/mL (≈ 144 µM); with Pseudomonas aeruginosa, 50 µg/mL (≈ 144 µM); against Sporothrix schenckii, 50 µg/mL (≈ 144 µM). Also, the MIC in the test on Enterococcus faecalis is 25 µg/mL (≈ 72 µM); with Aspergillus fumigatus, greater than 50 µg/mL; in the test on Staphylococcus aureus, 25 µg/mL (≈ 72 µM); in the test on Escherichia coli it was 50 µg/mL (≈ 144 µM); in the test with Candida parapsilosis, greater than 50 µg/mL.
Turning to `CCOC(=O)C(C)SC1=C(NN)C(=O)c2ccccc2C1=O` (stereo not drawn), the concentration for half-maximal inhibition (IC50) with Candida albicans was 24.2 µg/mL (≈ 75.7 µM); with Cryptococcus neoformans it was 13.3 µg/mL (≈ 41.6 µM); in the test on Trichophyton benhamiae, 4.5 µg/mL (≈ 14 µM); in the test on Klebsiella pneumoniae, 5.28 µg/mL (≈ 16.5 µM); in the test on Pseudomonas aeruginosa, 4.62 µg/mL (≈ 14.4 µM); in the test with Sporothrix schenckii it was 22 µg/mL (≈ 68.7 µM). In addition, the IC50 in the test with Enterococcus faecalis was determined as 22.3 µg/mL (≈ 69.5 µM); in the test on Aspergillus fumigatus it was 22.4 µg/mL (≈ 69.8 µM); with Staphylococcus aureus, 5.65 µg/mL (≈ 17.6 µM); in the test with Escherichia coli, 5.2 µg/mL (≈ 16.2 µM); in the test with Candida parapsilosis it was 17.3 µg/mL (≈ 54.1 µM). Moreover, the minimal inhibitory concentration (MIC) turned out to be 50 µg/mL (≈ 156 µM) in the test on Candida albicans; 25 µg/mL (≈ 78 µM) in the test on Cryptococcus neoformans; 6.25 µg/mL (≈ 19.5 µM) with Trichophyton benhamiae; 6.25 µg/mL (≈ 19.5 µM) against Klebsiella pneumoniae; 6.25 µg/mL (≈ 19.5 µM) in the test on Pseudomonas aeruginosa; 25 µg/mL (≈ 78 µM) with Sporothrix schenckii. Further, the minimal inhibitory concentration (MIC) in the test with Enterococcus faecalis amounted to 25 µg/mL (≈ 78 µM); in the test with Aspergillus fumigatus, 25 µg/mL (≈ 78 µM); against Staphylococcus aureus, 6.25 µg/mL (≈ 19.5 µM); against Escherichia coli it was 6.25 µg/mL (≈ 19.5 µM); with Candida parapsilosis, 25 µg/mL (≈ 78 µM).
`CCOC(=O)CSC1=C(Nc2ccccc2)C(=O)c2ccccc2C1=O`: the IC50 in the test with Candida albicans is greater than 50 µg/mL; in the test on Cryptococcus neoformans, greater than 50 µg/mL; with Trichophyton benhamiae it was 23 µg/mL (≈ 62.6 µM); in the test with Klebsiella pneumoniae, 9.24 µg/mL (≈ 25.1 µM); in the test with Pseudomonas aeruginosa it was 22.8 µg/mL (≈ 62.1 µM); in the test with Sporothrix schenckii, 46.7 µg/mL (≈ 127 µM). The IC50 in the test on Enterococcus faecalis is 18.6 µg/mL (≈ 50.7 µM); in the test on Aspergillus fumigatus, greater than 50 µg/mL; with Staphylococcus aureus it was 11.8 µg/mL (≈ 32.2 µM); with Escherichia coli it was 4.32 µg/mL (≈ 11.8 µM); in the test with Candida parapsilosis, greater than 50 µg/mL. Further, the MIC is greater than 50 µg/mL against Candida albicans; greater than 50 µg/mL in the test with Cryptococcus neoformans; 25 µg/mL (≈ 68 µM) against Trichophyton benhamiae; 12.5 µg/mL (≈ 34 µM) with Klebsiella pneumoniae; 25 µg/mL (≈ 68 µM) against Pseudomonas aeruginosa; 50 µg/mL (≈ 136 µM) with Sporothrix schenckii. For the same molecule, the minimum inhibitory concentration (MIC) was 25 µg/mL (≈ 68 µM) in the test with Enterococcus faecalis; greater than 50 µg/mL in the test with Aspergillus fumigatus; 12.5 µg/mL (≈ 34 µM) in the test on Staphylococcus aureus; 6.25 µg/mL (≈ 17 µM) with Escherichia coli; greater than 50 µg/mL with Candida parapsilosis.
With `CCOC(=O)C(C)SC1=C(NCCc2ccc(OC)c(OC)c2)C(=O)c2ccccc2C1=O` (stereo not drawn), the IC50 in the test with Candida albicans was greater than 50 µg/mL; in the test on Cryptococcus neoformans it was greater than 50 µg/mL; in the test with Trichophyton benhamiae, 14 µg/mL (≈ 29.8 µM); in the test on Klebsiella pneumoniae, 42.5 µg/mL (≈ 90.6 µM); in the test with Pseudomonas aeruginosa, 46.2 µg/mL (≈ 98.5 µM); in the test on Sporothrix schenckii, greater than 50 µg/mL. The concentration for half-maximal inhibition (IC50) was greater than 50 µg/mL with Enterococcus faecalis; greater than 50 µg/mL with Aspergillus fumigatus; 9.52 µg/mL (≈ 20.3 µM) in the test on Staphylococcus aureus; 44.3 µg/mL (≈ 94.3 µM) in the test with Escherichia coli; greater than 50 µg/mL in the test with Candida parapsilosis. For the same molecule, the MIC is greater than 50 µg/mL against Candida albicans; greater than 50 µg/mL against Cryptococcus neoformans; 25 µg/mL (≈ 53.2 µM) in the test with Trichophyton benhamiae; 50 µg/mL (≈ 106 µM) against Klebsiella pneumoniae; 50 µg/mL (≈ 106 µM) against Pseudomonas aeruginosa; greater than 50 µg/mL with Sporothrix schenckii. The MIC was greater than 50 µg/mL against Enterococcus faecalis; greater than 50 µg/mL in the test on Aspergillus fumigatus; 12.5 µg/mL (≈ 26.6 µM) against Staphylococcus aureus; 50 µg/mL (≈ 106 µM) in the test on Escherichia coli; greater than 50 µg/mL with Candida parapsilosis.

Source of the values: ChEMBL document CHEMBL1139716, “Naphtho[2,3-b][1,4]-thiazine-5,10-diones and 3-substituted-1,4-dioxo-1,4-dihydronaphthalen-2-yl-thioalkanoate derivatives: synthesis and biological evaluation as potential antibacterial and antifungal agents” (Bioorg Med Chem Lett, 2006).
